Test results: patent publication US6737383B1, “Herbicidal oxadiazolidines” (priority 1999, dated 2004)

Tests used:
purple nutsedge = assay: Test B pre/postemergence purple nutsedge; assay type: in vivo, Cyperus rotundus
Summary of the method: (§1)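 Response is a visual 0-to-10 score relative to untreated plants, where 0 means no effect and 10 means complete control, taken twelve to sixteen days after application. Treatments went onto soil at planting and onto foliage of 1- to 4-leaf plants, using a surfactant-containing non-phytotoxic solvent.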

blackgrass = assay: Test B pre/postemergence blackgrass; assay type: in vivo, Alopecurus myosuroides
Summary of the method: as §1

rice = assay: Test B flood test rice; assay type: in vivo, Oryza sativa
Summary of the method: (§2)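 Flood test on plants grown to the 2-leaf stage; treated plants kept in greenhouse twelve to sixteen days, then visually rated against controls on a 0 (no effect) to 10 (complete control) scale.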

rape = assay: Test B pre/postemergence rape; assay type: in vivo, Brassica napus
Summary of the method: as §1

wheat = assay: Test B pre/postemergence wheat; assay type: in vivo, Triticum aestivum
Summary of the method: as §1

bedstraw = assay: Test B pre/postemergence bedstraw; assay type: in vivo, Galium aparine
Summary of the method: as §1

crabgrass = assay: Test B pre/postemergence crabgrass; assay type: in vivo, Digitaria sanguinalis
Summary of the method: as §1

giant foxtail = assay: Test B pre/postemergence giant foxtail; assay type: in vivo, Setaria faberii
Summary of the method: as §1

duck salad = assay: Test B flood test duck salad; assay type: in vivo, Heteranthera limosa
Summary of the method: as §2

velvetleaf = assay: Test B pre/postemergence velvetleaf; assay type: in vivo, Abutilon theophrasti
Summary of the method: as §1

surinam grass = assay: Test B pre/postemergence surinam grass; assay type: in vivo, Brachiaria decumbens
Summary of the method: as §1

sugar beet = assay: Test B pre/postemergence sugar beet; assay type: in vivo, Beta vulgaris
Summary of the method: as §1

smallflower flatsedge = assay: Test B flood test smallflower flatsedge; assay type: in vivo, Cyperus difformis
Summary of the method: as §2

cocklebur = assay: Test B pre/postemergence cocklebur; assay type: in vivo, Xanthium strumarium
Summary of the method: as §1

soybean = assay: Test B pre/postemergence soybean; assay type: in vivo, Glycine max
Summary of the method: as §1

bamyardgrass = assay: Test B flood test barnyardgrass; assay type: in vivo, Echinochloa crus-galli
Summary of the method: as §2

corn = assay: Test B pre/postemergence corn; assay type: in vivo, Zea mays
Summary of the method: as §1

[1] = Postemergence, Rate 125 g/ha, scale of 0 to 10 where 0 is no effect and 10 is complete control
[2] = Preemergence, Rate 62 g/ha, scale of 0 to 10 where 0 is no effect and 10 is complete control
[3] = Preemergence, Rate 125 g/ha, 0 is no effect, 10 is complete control
[4] = Preemergence, Rate 250 g/ha, scale 0 to 10, 0 is no effect, 10 is complete control
[5] = Preemergence, Rate 500 g/ha, scale 0 to 10 (0 no effect, 10 complete control)
[6] = Rate 62 g/ha, Postemergence, scale of 0 to 10 where 0 is no effect and 10 is complete control
[7] = Rate 250 g/ha, Postemergence, scale 0 to 10, 0 is no effect, 10 is complete control
[8] = Rate 500 g/ha, Postemergence, scale 0 to 10
[9] = Rate 62 g/ha, headed Pre-emergence (flood test species), scale 0 to 10 (0 no effect, 10 complete control)
[10] = Rate 125 g/ha, Pre-emergence, flood test species, scale 0 to 10 where 0 is no effect and 10 is complete control
[11] = Rate 250 g/ha, Pre-emergence, flood-test species, scale 0 to 10, 0 is no effect, 10 is complete control
[12] = Rate 500 g/ha, headed Pre-emergence (flood test species), scale 0 to 10 (0 no effect, 10 complete control)

## CC(C)N(Cc1ccccc1)C(=O)n1oc(=O)n(C(C)C)c1=O [Compound 165]
Purple nutsedge; [1]
  Nutsedge plant response rating: 0
Purple nutsedge; [2]
  Nutsedge plant response rating: 0
Purple nutsedge; [3]
  Nutsedge plant response rating (0 to 10 scale): 0
Purple nutsedge; [4]
  Nutsedge plant response rating: 0
Purple nutsedge; [5]
  Nutsedge plant response rating: 0
Purple nutsedge; [6]
  Nutsedge plant response rating: 0
Purple nutsedge; [7]
  Plant response rating, Nutsedge: 0
Purple nutsedge; [8]
  Nutsedge plant response rating: 0
blackgrass; [1]
  Blackgrass plant response rating: 3
blackgrass; [2]
  Blackgrass plant response rating: 0
blackgrass; [3]
  Blackgrass plant response rating (0 to 10 scale): 3
blackgrass; [4]
  Blackgrass plant response rating: 6
blackgrass; [5]
  Blackgrass plant response rating: 8
blackgrass; [6]
  Blackgrass plant response rating: 0
blackgrass; [7]
  Plant response rating, Blackgrass: 7
blackgrass; [8]
  Blackgrass plant response rating: 8
rice; [9]
  Rice plant response rating: 0
rice; [10]
  Rice plant response rating: 0
rice; [11]
  Rice plant response rating: 0
rice; [12]
  Plant response rating, Rice: 0
rape; [1]
  Rape plant response rating: 0
rape; [2]
  Rape plant response rating: 0
rape; [3]
  Rape plant response rating (0 to 10 scale): 0
rape; [4]
  Rape plant response rating: 4
rape; [5]
  Rape plant response rating: 10
rape; [6]
  Rape plant response rating: 0
rape; [7]
  Plant response rating, Rape: 0
rape; [8]
  Rape plant response rating: 2
wheat; [2]
  Wheat plant response rating: 0
wheat; [3]
  Wheat plant response rating (0 to 10 scale): 0
wheat; [4]
  Wheat plant response rating: 0
wheat; [5]
  Wheat plant response rating: 2
wheat; [7]
  Plant response rating, Wheat: 2
wheat; [8]
  Wheat plant response rating: 3
bedstraw; [1]
  Bedstraw plant response rating: 0
bedstraw; [2]
  Bedstraw plant response rating: 0
bedstraw; [3]
  Bedstraw plant response rating (0 to 10 scale): 1
bedstraw; [4]
  Bedstraw plant response rating: 3
bedstraw; [5]
  Bedstraw plant response rating: 4
bedstraw; [6]
  Bedstraw plant response rating: 0
bedstraw; [7]
  Plant response rating, Bedstraw: 4
bedstraw; [8]
  Bedstraw plant response rating: 8
crabgrass; [1]
  Crabgrass plant response rating: 4
crabgrass; [2]
  Crabgrass plant response rating: 4
crabgrass; [3]
  Crabgrass plant response rating (0 to 10 scale): 7
crabgrass; [4]
  Crabgrass plant response rating: 8
crabgrass; [5]
  Crabgrass plant response rating: 8
crabgrass; [6]
  Crabgrass plant response rating: 2
crabgrass; [7]
  Plant response rating, Crabgrass: 9
crabgrass; [8]
  Crabgrass plant response rating: 9
Giant foxtail; [1]
  Giant foxtail plant response rating: 1
Giant foxtail; [2]
  Giant foxtail plant response rating: 6
Giant foxtail; [3]
  Giant foxtail plant response rating (0 to 10 scale): 7
Giant foxtail; [4]
  Giant foxtail plant response rating: 8
Giant foxtail; [5]
  Giant foxtail plant response rating: 9
Giant foxtail; [6]
  Giant foxtail plant response rating: 0
Giant foxtail; [7]
  Plant response rating, Giant foxtail: 5
Giant foxtail; [8]
  Giant foxtail plant response rating: 8
Duck salad; [9]
  Ducksalad plant response rating: 0
Duck salad; [10]
  Ducksalad plant response rating: 0
Duck salad; [11]
  Ducksalad plant response rating: 0
Duck salad; [12]
  Plant response rating, Ducksalad: 0
velvetleaf; [2]
  Velvetleaf plant response rating: 0
velvetleaf; [3]
  Velvetleaf plant response rating (0 to 10 scale): 1
velvetleaf; [4]
  Velvetleaf plant response rating: 4
velvetleaf; [5]
  Velvetleaf plant response rating: 4
velvetleaf; [7]
  Plant response rating, Velvetleaf: 1
velvetleaf; [8]
  Velvetleaf plant response rating: 1
Surinam grass; [1]
  B. signalgrass plant response rating: 1
Surinam grass; [2]
  B. signalgrass plant response rating: 0
Surinam grass; [3]
  B. signalgrass plant response rating (0 to 10 scale): 4
Surinam grass; [4]
  B. signalgrass plant response rating: 6
Surinam grass; [5]
  B. signalgrass plant response rating: 6
Surinam grass; [6]
  B. signalgrass plant response rating: 0
Surinam grass; [7]
  Plant response rating, B. signalgrass: 5
Surinam grass; Rate 500 g/ha, Postemergence, scale 0 to 10, 0 no effect, 10 complete control
  B. signalgrass plant response rating: 8
Sugar beet; [1]
  Sugarbeets plant response rating: 0
Sugar beet; [2]
  Sugarbeets plant response rating: 0
Sugar beet; [3]
  Sugarbeets plant response rating (0 to 10 scale): 4
Sugar beet; [4]
  Sugarbeets plant response rating: 4
Sugar beet; [5]
  Sugarbeets plant response rating: 4
Sugar beet; [6]
  Sugarbeets plant response rating: 0
Sugar beet; [7]
  Plant response rating, Sugarbeets: 3
Sugar beet; [8]
  Sugarbeets plant response rating: 6
Smallflower flatsedge; [9]
  S. Flatsedge plant response rating: 0
Smallflower flatsedge; [10]
  S. Flatsedge plant response rating: 0
Smallflower flatsedge; [11]
  S. Flatsedge plant response rating: 0
Smallflower flatsedge; Rate 500 g/ha, Pre-emergence, flood test species, scale 0 to 10 (0 no effect, 10 complete control)
  S. Flatsedge plant response rating: 0
cocklebur; [1]
  Cocklebur plant response rating: 0
cocklebur; [2]
  Cocklebur plant response rating: 0
cocklebur; [3]
  Cocklebur plant response rating (0 to 10 scale): 0
cocklebur; [4]
  Cocklebur plant response rating: 0
cocklebur; [5]
  Cocklebur plant response rating: 0
cocklebur; [6]
  Cocklebur plant response rating: 0
cocklebur; [7]
  Plant response rating, Cocklebur: 0
cocklebur; [8]
  Cocklebur plant response rating: 0
soybean; [1]
  Soybean plant response rating: 4
soybean; [2]
  Soybean plant response rating: 0
soybean; [3]
  Soybean plant response rating (0 to 10 scale): 0
soybean; [4]
  Soybean plant response rating: 0
soybean; [5]
  Soybean plant response rating: 0
soybean; [6]
  Soybean plant response rating: 2
soybean; [7]
  Plant response rating, Soybean: 6
soybean; [8]
  Soybean plant response rating: 6
bamyardgrass; [9]
  Barnyardgrass plant response rating: 0
bamyardgrass; [10]
  Barnyardgrass plant response rating: 0
bamyardgrass; [11]
  Barnyardgrass plant response rating: 0
bamyardgrass; [12]
  Plant response rating, Barnyardgrass: 1
corn; [1]
  Corn plant response rating: 0
corn; [2]
  Corn plant response rating: 0
corn; [3]
  Corn plant response rating (0 to 10 scale): 0
corn; [4]
  Corn plant response rating: 0
corn; [5]
  Corn plant response rating: 0
corn; [6]
  Corn plant response rating: 0
corn; [7]
  Plant response rating, Corn: 3
corn; [8]
  Corn plant response rating: 3
